The source of these data is patent US20240182445A1 (ONO PHARMACEUTICAL CO., LTD., priority 2019, published 2024).

As usually defined, the IC50 is the concentration that inhibits the measured activity by half. Read a high IC50 as a need for much substance.

The target in one data set is CYP2D6 (Homo sapiens, UniProt P10635). Nature of the data set: P450 inhibition 2D6. Format: in vitro ADME. On the procedure: (§1) These assays were performed according to known methods as generally described in the following references: Conde-Ceide et al. ACS Med. Chem. Lett. 2015, 6, 716-720; Morris et al. J. Med. Chem. 2014, 57, 10192-10197; and Bubser et al. ACS Chem. Neurosci. 2014, 5, 920-942. Abbreviations which have been used in the descriptions of the following tables are; PPB is plasma protein binding; BHB is brain homogenate binding; and CLint is intrinsic clearance in hepatic microsomes.
Sequence of CYP2D6 (P10635 whole entry): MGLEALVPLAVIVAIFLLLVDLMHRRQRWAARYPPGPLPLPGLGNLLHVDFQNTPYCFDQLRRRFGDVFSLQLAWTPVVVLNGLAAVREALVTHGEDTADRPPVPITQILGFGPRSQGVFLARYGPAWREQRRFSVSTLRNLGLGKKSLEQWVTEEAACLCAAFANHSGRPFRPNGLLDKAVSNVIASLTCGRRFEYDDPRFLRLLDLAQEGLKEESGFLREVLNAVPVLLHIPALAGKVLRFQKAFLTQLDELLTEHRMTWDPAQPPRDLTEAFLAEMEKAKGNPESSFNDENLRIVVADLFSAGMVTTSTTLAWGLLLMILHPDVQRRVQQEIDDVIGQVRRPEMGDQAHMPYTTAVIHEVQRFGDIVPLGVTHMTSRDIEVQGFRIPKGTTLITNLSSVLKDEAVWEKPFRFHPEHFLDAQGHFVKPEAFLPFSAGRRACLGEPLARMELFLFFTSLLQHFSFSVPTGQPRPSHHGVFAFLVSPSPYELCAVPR

Another data set addresses T1, CYP1A2 (Homo sapiens, UniProt P05177).
T1 sequence (P05177 1-516): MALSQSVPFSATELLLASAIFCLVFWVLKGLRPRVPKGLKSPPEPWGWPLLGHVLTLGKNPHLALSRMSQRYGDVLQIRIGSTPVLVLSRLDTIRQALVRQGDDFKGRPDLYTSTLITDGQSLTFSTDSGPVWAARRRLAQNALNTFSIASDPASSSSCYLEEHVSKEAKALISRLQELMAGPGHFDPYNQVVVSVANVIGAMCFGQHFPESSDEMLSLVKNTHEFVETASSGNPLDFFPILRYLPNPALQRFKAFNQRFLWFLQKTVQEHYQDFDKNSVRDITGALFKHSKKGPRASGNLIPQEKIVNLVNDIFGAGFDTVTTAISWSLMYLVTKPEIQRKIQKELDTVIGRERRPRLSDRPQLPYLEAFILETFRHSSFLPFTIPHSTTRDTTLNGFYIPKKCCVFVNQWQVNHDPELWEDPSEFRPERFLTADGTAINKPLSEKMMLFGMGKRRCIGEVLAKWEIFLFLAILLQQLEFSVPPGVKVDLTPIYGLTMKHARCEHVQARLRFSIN
The experiment in a line: P450 inhibition 1A2. In kind it is in vitro ADME. The protocol:
as §1

With `CC(=O)N[C@H]1CC[C@@H](n2ncc(Cl)c2C(=O)Nc2ncc(C#Cc3ccccc3)cc2C)CC1` [Compound 12, 1-(cis-4-acetamidocyclohexyl)-4-chloro-N-(3-methyl-5-(phenylethynyl)pyridin-2-yl)-1H-pyrazole-5-carboxamide], the IC50 on CYP2D6 stood at 4.5 µM; at CYP1A2, 8.6 µM.
